Data as given in patent publication US12427134B2, “Methods of reducing the risk of cardiovascular events in a subject with atrial fibrillation and/or atrial flutter” (priority 2019, dated 2025).

Tested on: hypertriglyceridemic patients with cardiovascular disease or at high risk for cardiovascular disease
Assay: REDUCE-IT: treatment-emergent adverse events and serious adverse events (safety population)
Conditions: Safety population, N = 4089

SMILES: CC/C=C\C/C=C\C/C=C\C/C=C\C/C=C\CCCC(=O)OCC [AMR101, eicosapentaenoic acid ethyl ester]
- Serious adverse event - Anemia, n patients: 22
- Serious adverse event - Angina pectoris, % patients: (1.2) %
- Serious adverse event - Angina pectoris, n patients: 48
- Serious adverse event - Angina unstable, % patients: (1.0) %
- Serious adverse event - Angina unstable, n patients: 41
- Serious adverse event - Atrial fibrillation, % patients: (0.5) %
- Serious adverse event - Atrial fibrillation, n patients: 21
- Serious adverse event - Blood and lymphatic system disorders (SOC), % patients: (1.0) %
- Serious adverse event - Blood and lymphatic system disorders (SOC), n patients: 39
- Serious adverse event - Cardiac disorders (SOC), % patients: (4.7) %
- Serious adverse event - Cardiac disorders (SOC), n patients: 192
- Serious adverse event - Cardiac failure congestive, % patients: (0.5) %
- Serious adverse event - Cardiac failure congestive, n patients: 19
- Serious adverse event - Cellulitis, % patients: (0.9) %
- Serious adverse event - Cellulitis, n patients: 36
- Serious adverse event - Chest pain, % patients: (1.6) %
- Serious adverse event - Chest pain, n patients: 66
- Serious adverse event - Chronic obstructive pulmonary disease, % patients: (0.8) %
- Serious adverse event - Chronic obstructive pulmonary disease, n patients: 33
- Serious adverse event - Gastrointestinal disorders (SOC), % patients: (4.7) %
- Serious adverse event - Gastrointestinal disorders (SOC), n patients: 191
- Serious adverse event - Gastrointestinal hemorrhage, % patients: (0.6) %
- Serious adverse event - Gastrointestinal hemorrhage, n patients: 26
- Serious adverse event - General disorders and administration site conditions (SOC), % patients: (3.4) %
- Serious adverse event - General disorders and administration site conditions (SOC), n patients: 139
- Serious adverse event - Musculoskeletal and connective tissue disorders (SOC), % patients: (4.6) %
- Serious adverse event - Musculoskeletal and connective tissue disorders (SOC), n patients: 188
- Serious adverse event - Neoplasms benign, malignant, and unspecified (incl cysts and polyps) (SOC), % patients: (5.4) %
- Serious adverse event - Neoplasms benign, malignant, and unspecified (incl cysts and polyps) (SOC), n patients: 222
- Serious adverse event - Nervous system disorders (SOC), % patients: (2.5) %
- Serious adverse event - Nervous system disorders (SOC), n patients: 104
- Serious adverse event - Non-cardiac chest pain, % patients: (1.2) %
- Serious adverse event - Non-cardiac chest pain, n patients: 49
- Serious adverse event - Osteoarthritis, % patients: (2.0) %
- Serious adverse event - Osteoarthritis, n patients: 81
- Serious adverse event - Pneumonia, % patients: (2.6) %
- Serious adverse event - Pneumonia, n patients: 105
- Serious adverse event - Prostate cancer, % patients: (0.6) %
- Serious adverse event - Prostate cancer, n patients: 26
- Serious adverse event - Pulmonary embolism, % patients: (0.3) %
- Serious adverse event - Pulmonary embolism, n patients: 14
- Serious adverse event - Renal and urinary disorders (SOC), % patients: (2.9) %
- Serious adverse event - Renal and urinary disorders (SOC), n patients: 120
- Serious adverse event - Respiratory, thoracic, and mediastinal disorders (SOC), % patients: (3.5) %
- Serious adverse event - Respiratory, thoracic, and mediastinal disorders (SOC), n patients: 143
- Serious adverse event - Syncope, % patients: (0.7) %
- Serious adverse event - Syncope, n patients: 28
- Severe TEAE, %: (19.7) %
- Severe TEAE: Acute kidney injury, %: (0.7) %
- Severe TEAE: Acute respiratory failure, %: (0.5) %
- Severe TEAE: Angina pectoris, %: (0.2) %
- Severe TEAE: Angina unstable, %: (0.3) %
- Severe TEAE: Back pain, %: (0.5) %
- Severe TEAE: Cardiac disorders, %: (2.4) %
- Severe TEAE: Chest pain, %: (0.7) %
- Severe TEAE: Chronic obstructive pulmonary disease, %: (0.4) %
- Severe TEAE: General disorders and administration site conditions, %: (1.9) %
- Severe TEAE: Musculoskeletal and connective tissue disorders, %: (2.9) %
- Severe TEAE: Nervous system disorders, %: (1.9) %
- Severe TEAE: Osteoarthritis, %: (0.8) %
- Severe TEAE: Pneumonia, %: (1.5) %
- Severe TEAE: Renal and urinary disorders, %: (1.9) %
- Severe TEAE: Respiratory, thoracic, and mediastinal disorders, %: (2.5) %
- Severe TEAE: Syncope, %: (0.3) %
- Study Drug-Related Serious TEAE Leading to Withdrawal of Study Drug, %: (0.0) %
- Study Drug-Related Serious TEAE, %: (0.2) %
- Study Drug-Related TEAE Leading to Withdrawal of Study Drug, %: (3.4) %
- Study Drug-Related TEAE, %: (12.6) %
- Study drug-related TEAE leading to study drug withdrawal - Abdominal discomfort, % patients: (0.1) %
- Study drug-related TEAE leading to study drug withdrawal - Abdominal discomfort, n patients: 6
- Study drug-related TEAE leading to study drug withdrawal - Abdominal distension, % patients: (0.1) %
- Study drug-related TEAE leading to study drug withdrawal - Abdominal distension, n patients: 3
- Study drug-related TEAE leading to study drug withdrawal - Abdominal pain upper, % patients: (0.1) %
- Study drug-related TEAE leading to study drug withdrawal - Abdominal pain upper, n patients: 4
- Study drug-related TEAE leading to study drug withdrawal - Abdominal pain, % patients: (0.0) %
- Study drug-related TEAE leading to study drug withdrawal - Abdominal pain, n patients: 1
- Study drug-related TEAE leading to study drug withdrawal - Abnormal feces, % patients: (0.0) %
- Study drug-related TEAE leading to study drug withdrawal - Abnormal feces, n patients: 0
- Study drug-related TEAE leading to study drug withdrawal - Arthralgia, % patients: (0.2) %
- Study drug-related TEAE leading to study drug withdrawal - Arthralgia, n patients: 7
- Study drug-related TEAE leading to study drug withdrawal - Arthritis, % patients: (0.1) %
- Study drug-related TEAE leading to study drug withdrawal - Arthritis, n patients: 3
- Study drug-related TEAE leading to study drug withdrawal - Constipation, % patients: (0.1) %
- Study drug-related TEAE leading to study drug withdrawal - Constipation, n patients: 4
- Study drug-related TEAE leading to study drug withdrawal - Diarrhea, % patients: (1.0) %
- Study drug-related TEAE leading to study drug withdrawal - Diarrhea, n patients: 41
- Study drug-related TEAE leading to study drug withdrawal - Dyspepsia, % patients: (0.1) %
- Study drug-related TEAE leading to study drug withdrawal - Dyspepsia, n patients: 4
- Study drug-related TEAE leading to study drug withdrawal - Eructation, % patients: (0.1) %
- Study drug-related TEAE leading to study drug withdrawal - Eructation, n patients: 3
- Study drug-related TEAE leading to study drug withdrawal - Flatulence, % patients: (0.1) %
- Study drug-related TEAE leading to study drug withdrawal - Flatulence, n patients: 6
- Study drug-related TEAE leading to study drug withdrawal - Gastric disorder, % patients: (0.1) %
- Study drug-related TEAE leading to study drug withdrawal - Gastric disorder, n patients: 4
